Data published in patent US8129377B2, “6-(pyridinyl)-4-pyrimidone derivates as tau protein kinase 1 inhibitors” (Mitsubishi Tanabe Pharma Corporation, priority 2004, dated 2012).

Target: T1, bovine cerebral TPK1 (Bos taurus, UniProt A0A3Q1MT31)
T1 construct: from tissue; host or cells: bovine brain (cerebrum)
Experiment: Inhibitory activity against P-GS1 phosphorylation by bovine cerebral TPK1
Type: biochemical
Conditions: 41.7 μM [γ-32P] ATP, 25° C., 2 hours
Method: Experiment 1: Inhibitory Activity of the Medicament of the Present Invention Against P-GS1 Phosphorylation by Bovine Cerebral TPK1
A mixture containing 100 mM MES-sodium hydroxide (pH 6.5), 1 mM magnesium acetate, 0.5 mM EGTA, 5 mM β-mercaptoethanol, 0.02% Tween 20, 10% glycerol, 12 μg/ml P-GS1, 41.7 μM [γ^−32P] ATP (68 kBq/ml), bovine cerebral TPK1 and a compound shown in Table (a final mixture contained 1.7% DMSO deriving from a solution of a test compound prepared in the presence of 10% DMSO) was used as a reaction system. The phosphorylation was started by adding ATP, and the reaction was conducted at 25° C. for 2 hours, and then stopped by adding 21% perchloric acid on ice cooling. The reaction mixture was centrifuged at 12,000 rpm for 5 minutes and adsorbed on P81 paper (Whatmann), and then the paper was washed four times with 75 mM phosphoric acid, three times with water and once with acetone. The paper was dried, and the residual radioactivity was measured using a liquid scintillation counter.

T1 sequence (A0A3Q1MT31 1-419): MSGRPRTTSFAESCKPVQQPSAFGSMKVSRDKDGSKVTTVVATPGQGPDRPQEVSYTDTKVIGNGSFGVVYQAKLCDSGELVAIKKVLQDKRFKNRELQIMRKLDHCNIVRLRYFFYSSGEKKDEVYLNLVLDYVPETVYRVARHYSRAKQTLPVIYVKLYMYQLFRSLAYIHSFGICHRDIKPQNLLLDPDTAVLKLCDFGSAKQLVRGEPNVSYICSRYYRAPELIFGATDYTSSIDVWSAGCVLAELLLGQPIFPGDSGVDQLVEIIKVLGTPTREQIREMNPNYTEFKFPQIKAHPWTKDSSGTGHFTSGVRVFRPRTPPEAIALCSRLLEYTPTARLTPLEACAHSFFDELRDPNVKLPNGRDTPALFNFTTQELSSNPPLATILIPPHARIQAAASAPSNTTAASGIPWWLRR

Row | IC50 [nM] | SMILES
1 | 7.9 | Cn1c(N2CCO[C@@H](c3cc4ccccc4o3)C2)nc(-c2ccncc2F)cc1=O [compound 4]
2 | 1.4 | Cn1c(N2CCO[C@@H](c3c(F)cccc3Cl)C2)nc(-c2ccncc2F)cc1=O [compound 5]
3 | 3.7 | Cn1c(N2CCN[C@@H](c3ccc(N4CCCCC4)cc3)C2)nc(-c2ccncc2F)cc1=O [compound 14, 6-(3-Fluoro-pyridin-4-yl)-3-methyl-2-((3S)-3-(4-piperidin-1-yl-phenyl)-piperazin-1-yl)-3H-pyrimidin-4-one]
4 | 1.7 | Cn1c(N2CCO[C@@H](c3ccc(N4CCC(N5CCCC5)CC4)cc3)C2)nc(-c2ccncc2F)cc1=O [compound 17]
5 | 0.53 | Cn1c(N2CCN[C@@H](c3ccc(N4CCN(c5ccccc5)CC4)cc3)C2)nc(-c2ccncc2F)cc1=O [compound 22]
6 | 0.73 | COc1ccc(-c2ccc([C@H]3CN(c4nc(-c5ccncc5F)cc(=O)n4C)CCN3)cc2)cc1 [compound 41]
7 | 6.4 | Cn1c(N2CCC(c3ccc(N4CCCC4)cc3)CC2)nc(-c2ccncc2F)cc1=O [compound 56]
8 | 1.2 | CC(C)Oc1ccc(-c2ccc([C@H]3CN(c4nc(-c5ccncc5F)cc(=O)n4C)CCN3)cc2)cc1 [compound 92]
9 | 8.2 | Cn1c(N2CCC(Nc3cccc(C(F)(F)F)c3)CC2)nc(-c2ccncc2F)cc1=O [compound 105]
10 | 2.9 | Cn1c(N2CCO[C@@H](c3ccc(N)cc3)C2)nc(-c2ccncc2F)cc1=O [compound 158, 2-((2S)-2-(4-Aminophenyl)morpholin-4-yl)-6-(3-fluoropyridin-4-yl)-3-methyl-3H-pyrimidin-4-one]
11 | 13 | CNc1cc(-c2cc(=O)n(C)c(N3CCO[C@@H](c4cc(C#N)ccc4OC)C3)n2)ccn1 [compound 196]
12 | 2.2 | Cn1c(N2CCO[C@@H](c3ccc(NC(=O)C4CCCCC4)cc3)C2)nc(-c2ccncc2F)cc1=O [compound 209]
13 | 0.51 | Cc1cc(C2CN(c3nc(-c4ccncc4F)cc(=O)n3C)CCO2)ccc1Br (stereo not drawn) [compound 210]
14 | 5.4 | CN(c1ccc([C@H]2CN(c3nc(-c4ccncc4F)cc(=O)n3C)CCO2)cc1)c1ccccn1 [compound 212]
15 | 4.2 | Cn1c(N2CCO[C@@H](c3ccc(NC(=O)C(C)(C)C)cc3)C2)nc(-c2ccncc2F)cc1=O [compound 215]
16 | 2.7 | Cn1c(N2CCO[C@@H](c3ccc(N[C@@H]4CCOC4)cc3)C2)nc(-c2ccncc2F)cc1=O [compound 220, 2-((2S)-2-(4-(N-((3R)-Tetrahydrofuran-3-yl)amino)phenyl)morpholin-4-yl)-3-methyl-6-(3-fluoropyridin-4-yl)-3H-pyrimidin-4-one]
17 | 3.9 | CN(c1ccc([C@H]2CN(c3nc(-c4ccncc4F)cc(=O)n3C)CCO2)cc1)[C@@H]1CCOC1 [compound 221, 6-(3-Fluoropyridin-4-yl)-2-((2S)-2-(4-(N-methyl-N-((3R)-tetrahydrofuran-3yl)amino)phenyl)morpholin-4-yl)-3-methyl-3H-pyrimidin-4-one]
18 | 1.1 | Cn1c(N2CCO[C@@H](c3ccc(OCCN4CCOCC4)cc3)C2)nc(-c2ccncc2F)cc1=O [compound 224]
19 | 6.4 | CC(=O)N1CCC(Oc2ccc([C@H]3CN(c4nc(-c5ccncc5F)cc(=O)n4C)CCO3)cc2)CC1 [compound 238, 2-((2S)-2-(4-(1-Acetylpiperidin-4-yloxy)phenyl)morpholin-4-yl)-6-(3-fluoropyridin-4-yl)-3-methyl-pyrimidin-4-one]
20 | 13 | COc1cc(Cl)ccc1[C@H]1CN(c2nc(-c3ccncc3Cl)cc(=O)n2C)CCO1 [compound 247]
21 | 0.27 | CN(C)CC(=O)Nc1ccc([C@H]2CN(c3nc(-c4ccncc4F)cc(=O)n3C)CCO2)cc1 [compound 288, N^2,N^2-Dimethyl-N^1-(4-((2S)-4-(3-methyl-4-oxo-3,4-dihydro-6-(3-fluoropyridin-4-yl)pyrimidin-2-yl)morpholin-2-yl)phenyl)glycinamide]
22 | 1.2 | COC(=O)Nc1ccc([C@H]2CN(c3nc(-c4ccncc4F)cc(=O)n3C)CCO2)cc1 [compound 295, Methyl (4-((2S)-4-(6-(3-fluoropyridin-4-yl)-3-methyl-4-oxo-3H-pyrimidin-2-yl)morpholin-2-yl)phenyl)carbamate]
23 | 11 | CN(C)C(=O)Nc1ccc([C@H]2CN(c3nc(-c4ccncc4F)cc(=O)n3C)CCO2)cc1 [compound 298, N′-(4-((2S)-4-(6-(3-Fluoropyridin-4-yl)-3-methyl-4-oxo-3H-pyrimidin-2-yl)morpholin-2-yl)phenyl)-N,N-dimethylurea]
24 | 6.2 | Cn1c(N2CCC[C@H](c3ccc(Br)cc3)C2)nc(-c2ccncc2F)cc1=O [compound 303, 2-((3R)-3-(4-Bromophenyl)piperidin-1-yl)-6-(3-fluoropyridin-4-yl)-3-methyl-3H-pyrimidine-4-one]
25 | 1.2 | Cn1c(N2CCOC(c3ccc4c(c3)CCC(=O)N4)C2)nc(-c2ccncc2F)cc1=O (stereo not drawn) [compound 305]
26 | 7.4 | Cn1c(N2CCO[C@@H](c3ccc(C(=O)N4CCOCC4)cc3)C2)nc(-c2ccncc2F)cc1=O [compound 310]
27 | 0.48 | COc1ccc(NC(C)=O)cc1[C@H]1CN(c2nc(-c3ccncc3F)cc(=O)n2C)CCO1 [compound 313]
28 | 4.1 | CC(=O)Nc1cccc([C@H]2CN(c3nc(-c4ccncc4F)cc(=O)n3C)CCO2)c1 [compound 314]
29 | 4.8 | Cn1c(N2CCN[C@@H](c3ccc(-c4ncon4)cc3)C2)nc(-c2ccncc2F)cc1=O [compound 322, 6-(3-Fluoropyridin-4-yl)-3-methyl-2-((3S)-3-(4-([1,2,4]oxadiazol-3-yl)phenyl)piperazin-1-yl)-3H-pyrimidin-4-one]
30 | 2.9 | Cc1nc(-c2ccc([C@H]3CN(c4nc(-c5ccncc5F)cc(=O)n4C)CCN3)cc2)no1 [compound 334, 6-(3-Fluoropyridin-4-yl)-3-methyl-2-((3S)-3-(4-(5-methyl-[1,2,4]oxadiazol-3-yl)phenyl)piperazin-1-yl)-3H-pyrimidin-4-one]
